Literature values as cited in patent publication US5534537A, “Prodrugs of inhibitors of farnesyl-protein transferase” (Merck & Co., Inc., priority 1995, dated 1996).

System: farnesyl-protein transferase
Conditions: via inhibition of HMG-CoA reductase, literature (Hancock et al.; Casey et al.; Schafer et al.)

Structure (SMILES)	Indirect inhibition of farnesyl-protein transferase in vivo
CC[C@H](C)C(=O)O[C@H]1C[C@@H](C)C=C2C=C[C@H](C)[C@H](CC[C@@H]3C[C@@H](O)CC(=O)O3)[C@H]21 [lovastatin]	Indirect inhibition
CC[C@H](C)C(=O)O[C@H]1CCC=C2C=C[C@H](C)[C@H](CC[C@@H]3C[C@@H](O)CC(=O)O3)[C@H]21 [compactin]	Indirect inhibition
